Measured values from the supplement of paper PMC11061612.

Assays:
Assay in all cases: combination Emax (second highest fraction inhibited in the dose matrix, 72 h); higher = more inhibition; extreme values may be limits of the assay
[1] = test system: L-540 (Hodgkin's Lymphoma)
Summary of the method: (§1)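 Bliss excess equals the observed combination effect minus the expected value EA + EB − EA·EB, where EA and EB are the effects of each agent alone. Combination Emax is the second-highest inhibition within the matrix. Inhibition was scaled from CellTiter-Glo 2.0 luminescence, with 0 set by vehicle wells and 1 by blank wells, after 72 hours of two-drug dosing of cells plated in 1536-well plates.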

[2] = test system: MKN28 (Gastric Carcinoma)
Summary of the method: as §1

[3] = test system: HL-60 (Acute Myeloid Leukemia)
Summary of the method: as §1

[4] = test system: CAMA-1 (Breast Carcinoma)
Summary of the method: as §1

[5] = test system: MEL-JUSO (Melanoma)
Summary of the method: as §1

[6] = test system: PANC-08-13 (Pancreatic Carcinoma)
Summary of the method: as §1

[7] = test system: TE-6 (Esophageal Squamous Cell Carcinoma)
Summary of the method: as §1

[8] = test system: K-562 (Chronic Myelogenous Leukemia)
Summary of the method: as §1

[9] = test system: SW1417 (Colorectal Carcinoma)
Summary of the method: as §1

[10] = test system: WIL2-NS (Non-Cancerous)
Summary of the method: as §1

[11] = test system: SU-DHL-8 (B-Cell Non-Hodgkin's Lymphoma)
Summary of the method: as §1

[12] = test system: KYSE-180 (Esophageal Squamous Cell Carcinoma)
Summary of the method: as §1

[13] = test system: BFTC-905 (Bladder Carcinoma)
Summary of the method: as §1

[14] = test system: EVSA-T (Breast Carcinoma)
Summary of the method: as §1

[15] = test system: SW837 (Colorectal Carcinoma)
Summary of the method: as §1

[16] = test system: TOV-112D (Ovarian Carcinoma)
Summary of the method: as §1

[17] = test system: U251 (Low Grade Glioma)
Summary of the method: as §1

[18] = test system: MS751 (Cervical Carcinoma)
Summary of the method: as §1

[19] = test system: CHP-212 (Neuroblastoma)
Summary of the method: as §1

[20] = test system: KARPAS-45 (T-Lymphoblastic Leukemia)
Summary of the method: as §1

SMILES | combination Emax [1] | combination Emax [2] | combination Emax [3] | combination Emax [4] | combination Emax [5] | combination Emax [6] | combination Emax [7] | combination Emax [8] | combination Emax [9] | combination Emax [10] | combination Emax [11] | combination Emax [12] | combination Emax [13] | combination Emax [14] | combination Emax [15] | combination Emax [16] | combination Emax [17] | combination Emax [18] | combination Emax [19] | combination Emax [20]
Cc1cc2ncnn2cc1Nc1ncc2c(n1)n(C1CCOCC1)c(=O)n2C [AZD7648] + C=CCn1c(=O)c2cnc(Nc3ccc(N4CCN(C)CC4)cc3)nc2n1-c1cccc(C(C)(C)O)n1 [AZD1775] (first compound max 10 µM, partner max 1 µM) | 0.945 | 0.668 | 0.812 | 0.303 | 0.494 | 0.312 | 0.363 | 0.645 | 0.555 | 0.954 | 0.87 | 0.778 | 0.56 | 0.291 | 0.292 | 0.468 | 0.319 | 0.387 | 0.769 | 0.819
Cc1cc2ncnn2cc1Nc1ncc2c(n1)n(C1CCOCC1)c(=O)n2C [AZD7648] + CCN(CCO)CCCOc1ccc2c(Nc3cc(CC(=O)Nc4cccc(F)c4)[nH]n3)ncnc2c1 [AZD2811] (first compound max 10 µM, 7x7, partner max 1 µM) | 0.504 | 0.309 | 0.865 | 0.28 | 0.258 | 0.254 | 0.313 | 0.202 | 0.313 | 0.215 | 0.245 | 0.207 | 0.54 | 0.327 | 0.192 | 0.458 | 0.233 | 0.453 | 0.693 | 0.931
Cc1cc2ncnn2cc1Nc1ncc2c(n1)n(C1CCOCC1)c(=O)n2C [AZD7648] + CN(C)CCCOc1ccc(-c2ccc3ncc4c(c3c2)n(C2CCOCC2)c(=O)n4C)cn1 [AZD0156] (first compound max 10 µM, 7x7, partner max 1 µM) | 0.366 | 0.287 | 0.416 | 0.261 | 0.169 | 0.223 | 0.363 | 0.2 | 0.326 | 0.395 | 0.125 | 0.168 | 0.221 | 0.28 | 0.154 | 0.38 | 0.196 | 0.275 | 0.288 | 0.234
Cc1cc2ncnn2cc1Nc1ncc2c(n1)n(C1CCOCC1)c(=O)n2C [AZD7648] + C[C@@H]1COCCN1C2=NC(=NC(=C2)C3(CC3)[S@](=N)(=O)C)C4=C5C=CNC5=NC=C4 [AZD6738] (first compound max 10 µM, 7x7, partner max 10 µM) | 0.951 | 0.514 | 0.834 | 0.393 | 0.419 | 0.325 | 0.553 | 0.892 | 0.491 | 0.979 | 0.899 | 0.867 | 0.804 | 0.323 | 0.39 | 0.685 | 0.353 | 0.296 | 0.776 | 0.74
Cc1cc2ncnn2cc1Nc1ncc2c(n1)n(C1CCOCC1)c(=O)n2C [AZD7648] + O=C(c1cc(Cc2n[nH]c(=O)c3ccccc23)ccc1F)N1CCN(C(=O)C2CC2)CC1 [Olaparib] (first compound max 10 µM, 7x7, partner max 10 µM) | 0.396 | 0.103 | 0.228 | 0.109 | 0.104 | 0.102 | 0.328 | 0.176 | 0.165 | 0.461 | 0.448 | 0.0923 | 0.178 | 0.253 | 0.0487 | 0.353 | 0.185 | 0.197 | 0.529 | 0.177
NC1(C(=O)N[C@@H](CCO)c2ccc(Cl)cc2)CCN(c2ncnc3[nH]ccc23)CC1 [Capivasertib] + CC(=O)c1c(C)c2cnc(Nc3ccc(N4CCNCC4)cn3)nc2n(C2CCCC2)c1=O [Palbociclib] (first compound max 10 µM, 7x7, partner max 10 µM) | 0.214 | 0.155 | 0.799 | 0.668 | 0.518 | 0.308 | 0.723 | 0.257 | 0.269 | 0.849 | 0.571 | 0.572 | 0.397 | 0.942 | 0.151 | 0.542 | 0.441 | 0.236 | 0.556 | 0.982
NC1(C(=O)N[C@@H](CCO)c2ccc(Cl)cc2)CCN(c2ncnc3[nH]ccc23)CC1 [Capivasertib] + CC(C)n1c(=O)n(C)c2cnc3cc(F)c(-c4ccc(OCCCN5CCCCC5)nc4)cc3c21 [AZD1390] (first compound max 10 µM, 7x7, partner max 0.3 µM) | 0.265 | 0.145 | 0.225 | 0.665 | 0.164 | 0.242 | 0.599 | 0.33 | 0.276 | 0.682 | 0.107 | 0.488 | 0.221 | 0.975 | 0.25 | 0.175 | 0.284 | 0.19 | 0.262 | 0.581
NC1(C(=O)N[C@@H](CCO)c2ccc(Cl)cc2)CCN(c2ncnc3[nH]ccc23)CC1 [Capivasertib] + CCN(CCO)CCCOc1ccc2c(Nc3cc(CC(=O)Nc4cccc(F)c4)[nH]n3)ncnc2c1 [AZD2811] (first compound max 10 µM, 7x7, partner max 1 µM) | 0.361 | 0.206 | 0.859 | 0.768 | 0.274 | 0.329 | 0.673 | 0.245 | 0.278 | 0.641 | 0.324 | 0.51 | 0.428 | 0.979 | 0.261 | 0.42 | 0.444 | 0.632 | 0.749 | 0.979
NC1(C(=O)N[C@@H](CCO)c2ccc(Cl)cc2)CCN(c2ncnc3[nH]ccc23)CC1 [Capivasertib] + COc1nnc2ccc(N3CCC(c4ccc(OCCN5CCN(C)C(=O)[C@H]5C)cc4)CC3)nn12 [AZD5153] (first compound max 10 µM, 7x7, partner max 1 µM) | 0.605 | 0.488 | 1 | 0.928 | 0.36 | 0.668 | 0.754 | 0.528 | 0.482 | 0.848 | 0.899 | 0.616 | 0.681 | 1 | 0.538 | 0.665 | 0.578 | 0.794 | 0.932 | 1
NC1(C(=O)N[C@@H](CCO)c2ccc(Cl)cc2)CCN(c2ncnc3[nH]ccc23)CC1 [Capivasertib] + C[C@@H]1COCCN1C2=NC(=NC(=C2)C3(CC3)[S@](=N)(=O)C)C4=C5C=CNC5=NC=C4 [AZD6738] (first compound max 10 µM, 7x7, partner max 10 µM) | 0.94 | 0.296 | 0.805 | 0.684 | 0.524 | 0.478 | 0.754 | 0.866 | 0.497 | 0.919 | 0.964 | 0.554 | 0.623 | 0.959 | 0.385 | 0.718 | 0.444 | 0.498 | 0.829 | 0.854
NC1(C(=O)N[C@@H](CCO)c2ccc(Cl)cc2)CCN(c2ncnc3[nH]ccc23)CC1 [Capivasertib] + Cn1cnc2c(F)c(Nc3ccc(Br)cc3Cl)c(C(=O)NOCCO)cc21 [Selumetinib] (first compound max 10 µM, 7x7, partner max 10 µM) | 0.188 | 0.241 | 0.874 | 0.693 | 0.545 | 0.405 | 0.736 | 0.425 | 0.586 | 0.771 | 0.0919 | 0.48 | 0.746 | 0.947 | 0.603 | 0.313 | 0.494 | 0.263 | 0.946 | 0.627
Cc1nc(Nc2ncc(C(=O)Nc3c(C)cccc3Cl)s2)cc(N2CCN(CCO)CC2)n1 [Dasatinib] + CC(=O)Nc1cccc(-n2c(=O)n(C3CC3)c(=O)c3c(Nc4ccc(I)cc4F)n(C)c(=O)c(C)c32)c1 [Trametinib] (first compound max 2 µM, 7x7, partner max 1 µM) | 0.148 | 0.417 | 0.703 | 0.127 | 0.497 | 0.738 | 0.535 | 0.747 | 0.834 | 0.721 | 0.0526 | 0.411 | 0.863 | 0.176 | 0.764 | 0.749 | 0.781 | 0.282 | 1 | 0.592
COc1cccc2c1C(=O)c1c(O)c3c(c(O)c1C2=O)C[C@@](O)(C(=O)CO)C[C@@H]3O[C@H]1C[C@H](N)[C@H](O)[C@H](C)O1 [Doxorubicin] + Cc1cc2ncnn2cc1Nc1ncc2c(n1)n(C1CCOCC1)c(=O)n2C [AZD7648] (first compound max 1 µM, 7x7, partner max 10 µM) | 0.931 | 0.503 | 0.994 | 0.469 | 0.328 | 0.182 | 0.322 | 0.823 | 0.432 | 1 | 0.943 | 0.858 | 0.974 | 0.787 | 0.516 | 0.926 | 0.859 | 0.891 | 0.782 | 0.337
